Measurements taken from patent publication US11827628B2, “Compositions and methods for inhibition of the JAK pathway” (Rigel Pharmaceuticals, Inc., priority 2005, dated 2023).

System: up-regulation of ICAM-1 (CD54) by IFNγ in A549 lung epithelial cells
Experiment: A549 Epithelial Line Stimulated with IFNγ (ICAM-1 surface expression, FACS)
Type: cell-based, human
Details: Homo sapiens, A549, A549 cells stimulated with IFNγ, ICAM-1 expression by FACS; read-out: IC50, Example 43
From the text: The activity of the compounds of the invention may additionally be characterized by assaying the effect of the 2,4-substituted pyrimidinediamine compounds described herein on A549 lung epithelial cells and U937 cells. A549 lung epithelial cells and U937 cells up-regulate ICAM-1 (CD54) surface expression in response to a variety of different stimuli. Therefore, using ICAM-1 expression as readout, test compound effects on different signaling pathways can be assessed in the same cell type. Stimulation with IL-1β through the IL-1β receptor activates the TRAF6/NFκB pathway resulting in up-regulation of ICAM-1. IFNγ induces ICAM-1 up-regulation through activation of the JAK1/JAK2 pathway. The up-regulation of ICAM-1 can be quantified by flow cytometry across a compound dose curve and EC50, values are calculated. An exemplary assays of this type are described in greater detail in Examples 43 and 44
A549 lung epithelial cells up-regulate ICAM-1 (CD54) surface expression in response to a variety of different stimuli. Therefore, using ICAM-1 expression as readout, compound effects on different signaling pathways can be assessed in the same cell type. IFNγ up-regulates ICAM-1 through activation of the JAK/Stat pathway. In this example, the up-regulation of ICAM-1 by IFNγ was assessed.
The A549 lung epithelial carcinoma cell line originated from the American Type Culture Collection. Routine culturing was with F12K media (Mediatech Inc., Lenexa, KS, Cat. No. 10-025-CV) with 10% fetal bovine serum, 100 I.U. penicillin and […] streptomycin (complete F12k media). Cells were incubated in a humidified atmosphere of 5% CO2 at 37° C. Prior to use in the assay, A549 cells were washed with PBS and trypsinized (Mediatech Inc., Cat. No. 25-052-CI) to lift the cells. The trypsin cell suspension was neutralized with complete F12K media and centrifuged to pellet the cells. The cell pellet was resuspended in complete F12K media at a concentration of 2.0×10^5/mL. Cells were seeded at 20,000 per well, 100 μL total volume, in a flat bottom tissue culture plate and allowed to adhere overnight.
On day two, A549 cells were pre-incubated with a 2,4-substituted pyrimidinediamine test compound or DMSO (control) (Sigma-Aldrich, St. Louis, MO, Catalog No. D2650) for 1 hour. The cells were then stimulated with IFNγ (75 ng/mL) (Peprotech Inc., Rocky Hill, NJ, Cat. No. 300-02) and allowed to incubate for 24 hours. The final test compound dose range was 30 μM to 14 nM in 200 μL F12K media containing 5% FBS, 0.3% DMSO.
On day three, the cell media was removed and the cells were washed with 200 μL PBS (phosphate buffered saline). Each well was trypsinized to dissociate the cells, then neutralized by addition of 200 μL complete F12K media. Cells were pelleted and stained with an APC conjugated mouse anti-human ICAM-1 (CD54) (BD Pharmingen, San Diego, CA, Catalog #559771) antibody for 20 minutes at 4° C. Cells were washed with ice cold FACS buffer (PBS+2% FBS) and surface ICAM-1 expression was analyzed by flow cytometry. Detection was performed using a BD LSR I System Flow Cytometer, purchased from BD Biosciences of San Jose, California Events were gated for live scatter and the geometric mean was calculated (Becton-Dickinson CellQuest software version 3.3, Franklin Lakes, NJ). Geometric means were plotted against the compound concentration to generate a dose response curve.

SMILES	IC50 [µM]
NS(=O)(=O)c1cccc(Nc2ncc(F)c(Nc3ccc(CCCCO)cc3)n2)c1 [VI-89, N2-(3-Aminosulfonylphenyl)-5-fluoro-N4-[4-(4-hydroxybutyl)phenyl]-2,4-pyrimidinediamine]	5.76
NS(=O)(=O)c1cccc(Nc2ncc(F)c(Nc3ccc(CCCCF)cc3)n2)c1 [VI-92, N2-(3-Aminosulfonylphenyl)-5-fluoro-N4-[4-(4-fluorobutyl)phenyl]-2,4-pyrimidinediamine]	13
NS(=O)(=O)c1cc(Nc2ncc(F)c(Nc3ccc(O)cc3)n2)ccc1F [VI-100, N2-(3-Aminosulfonyl-4-fluorophenyl)-5-fluoro-N4-(4-hydroxyphenyl)-2,4-pyrimidinediamine]	9.18
Cc1ccc(Nc2ncc(F)c(Nc3ccc(O)cc3)n2)cc1S(N)(=O)=O [VI-102, N2-(3-Aminosulfonyl-4-methylphenyl)-5-fluoro-N4-[4-hydroxyphenyl]-2,4-pyrimidinediamine]	14.7
COc1ccc(Nc2nc(Nc3ccc(N4CCN(C)CC4)c(S(N)(=O)=O)c3)ncc2F)cc1Cl [VI-116, N2-[3-Aminosulfonyl-4-(4-methylpiperazine-1-yl)phenyl]-N4-(3-chloro-4-methoxyphenyl)-5-fluoro-2,4-pyrimidinediamine]	8.1
COc1ccc(Nc2nc(Nc3cccc(S(N)(=O)=O)c3)ncc2F)cn1 [VII-6, N2-(3-Aminosulfonylphenyl)-5-fluoro-N4-(2-methoxypyrid-5-yl)-2,4-pyrimidinediamine]	23.4
COc1ccc(Nc2nc(Nc3ccc(C)c(S(N)(=O)=O)c3)ncc2F)nc1N [VII-9, N2-(3-Aminosulfonyl-4-methylphenyl)-N4-[2-amino-3-methoxypyrid-6-yl]-5-fluoro-2,4-pyrimidinediamine]	17.1
Cc1ccc(Nc2ncc(C)c(Nc3ccc4c(c3)NC(=O)CO4)n2)cc1S(N)(=O)=O [VII-30, N2-(3-Aminosulphonyl-4-methylphenyl)-5-methyl-N4-(3-oxo-benz[1,4]oxazin-6-yl)-2,4-pyrimidinediamine]	8.92
Cc1ccc(Nc2ncc(F)c(Nc3ccc4c(c3)NC(=O)CS4)n2)cc1S(N)(=O)=O [VII-44, N2-(3-Aminosulphonyl-4-methyl-phenyl)-5-fluoro-N4-(3-oxo-4H-benzo[1,4]thiazin-6-yl)-2,4-pyrimidinediamine]	9.12
CN1C(=O)CSc2ccc(Nc3nc(Nc4cccc(S(N)(=O)=O)c4)ncc3F)cc21 [VII-49, N2-(3-Aminosulfonylphenyl)-5-fluoro-N4-(4-methyl-3-oxo-benz[1,4]thiazin-6-yl)-2,4-pyrimidinediamine]	3.06
Cc1ccc(Nc2ncc(F)c(Nc3ccc4oc(C#N)cc4c3)n2)cc1S(N)(=O)=O [VII-53, N2-(3-Aminosulfonyl-4-methylphenyl)-N4-(2-cyanobenzofuran-5-yl)-5-fluoro-2,4-pyrimidinediamine]	5.46
Cc1ccc(Nc2ncc(F)c(Nc3ccc4sccc4c3)n2)cc1S(N)(=O)=O [VII-57, N2-(3-Aminosulfonyl-4-methylphenyl)-N4-(benzothiophen-5-yl)-5-fluoro-2,4-pyrimidinediamine]	10.7
Cc1ccc(Nc2ncc(F)c(Nc3ccc4ncccc4c3)n2)cc1S(N)(=O)=O [VII-69, N2-(3-Aminosulfonyl-4-methylphenyl)-5-fluoro-N4-(quinolin-6-yl)-2,4-pyrimidinediamine]	7.5
NS(=O)(=O)c1cccc(Nc2ncc(F)c(Nc3ccc4ncccc4c3)n2)c1 [VII-70, N2-(3-Aminosulfonylphenyl)-5-fluoro-N4-(quinolin-6-yl)-2,4-pyrimidinediamine]	6.48
Cc1ccc2cc(Nc3nc(Nc4ccc(C)c(S(N)(=O)=O)c4)ncc3F)ccc2n1 [VII-71, N2-(3-Aminosulfonyl-4-methylphenyl)-5-fluoro-N4-(2-methylquinolin-6-yl)-2,4-pyrimidinediamine]	5.47
Cc1ccc2cc(Nc3nc(Nc4cccc(S(N)(=O)=O)c4)ncc3F)ccc2n1 [VII-72, N2-(3-Aminosulfonylphenyl)-5-fluoro-N4-(2-methylquinolin-6-yl)-2,4-pyrimidinediamine]	9.93
